In patent US20080082038A1, “Medical Device including a Bioactive in a Non-ionic and an Ionic Form and Methods of Preparation Thereof” (Vance Products Incorporated, d/b/a/ Cook Urological …, priority 2006, published 2008):
Counter-ions that a name gives are not always drawn. Like-named read-outs stand apart in the source and are kept apart here.

Legend:
[1] = Solubility of bupivacaine free-base and salt in water and ethanol; type: physicochemical
Procedure: In water, the free-base (unionized form) of bupivacaine is much less soluble in water than the salt form (bupivacaine-HCl). A water suspension of free-base in water has a pH of 7.85. […] By lowering the pH, the ratio of protonated bupivacaine (ionized) to unprotonated bupivacaine (unionized) increases.
(§1) Stents, prepared as described in Example 1, are imbibed in 5% bupivacaine-HCl in water/ethanol for 20 minutes at 45° C.

[2] = Elution of deposited drug from imbibed stents in buffered saline solution (HPLC); type: physicochemical; settings: for rate of elution of drug from imbibed polyurethane stent: polyurethane stent imbibed with the named form
Procedure: as §1
The amount of drug deposited on the stent is determined by high performance liquid chromatography (HPLC). The rate of bupivacaine dissolution is determined by measuring the elution profiles using HPLC.
The solubility and thus the ratio of bupivacaine to bupivacaine-HCl was determined by the elution of the deposited drug in buffered saline solution (pH=7.4) mimicking a bodily fluid.

[3] = buffered saline solution pH=7.4

## CCCCN1CCCCC1C(=O)Nc1c(C)cccc1C (stereo not shown) [bupivacaine-HCl]
[1]; aqueous buffer, water, pH between 1.8 and 6, read-out: solubility (dissolved in water)
  solubility: 40 to 50 mg/mL
[1]; ethanol, organic solvent or mixture, read-out: solubility in ethanol
  solubility: 125 mg/mL
[1]; water, read-out: solubility in water
  solubility: 40 mg/mL
[2]
  rate of elution of drug from imbibed polyurethane stent: can elute more quickly

## CCCCN1CCCCC1C(=O)Nc1c(C)cccc1C (stereo not shown) [bupivacaine]
[1]; aqueous solution
  solubility in aqueous solution relative to the bupivacaine-salt: at least two orders of magnitude less soluble
[1]; suspension in water
  pH of water suspension of free-base: 7.85
[1]; water, pH 7.85, water, thermodynamic from solid, read-out: solubility
  solubility: ~0.25 mg/mL
[2]; [3]
  elution of the drug on day one and day two, ethanol solution relative to water solution: approximately six times
  solubility of the deposited drug, ethanol deposition relative to water deposition: close to six times greater
[2]; listed as bupivacaine free-base
  rate of elution of drug from imbibed polyurethane stent: greatly reduced
